Measurements: US7531320B2, “Modulation of β-catenin/TCF-activated transcription” (priority 2003, dated 2009)

Legend:
Type in all cases: cell-based, human
[1] = system: nuclear β-catenin in SW480 cells; experiment: β-catenin immunofluorescence and western blot localization in SW480 cells; conditions: 25 μM, 24 hours
Description: FIG. 4. COMPOUND 1 decreases nuclear β-catenin • A. β-catenin immunofluorescence microscopy. Log phase SW480 (left) and HCT116 (right) cells were fixed and stained with either anti-β-catenin red (upper panel, A) or anti-CBP (upper panel, B) green. The center panel represents the superimposed β-catenin and CBP in SW480 (left) and HCT116 (right) cells. […] 25 μg of total protein from the cell extracts of SW480 cells with or without 24 hr treatment of COMPOUND1 was used for detection of cytosolic and nuclear β-catenin.
Immunofluorescence was used to examine the localization of CBP and β-catenin in SW480 and HCT116 cells treated with COMPOUND 1 (25 μM) or control (0.5% DMSO). Cells at log phase were seeded and after 24 hours, the cells were treated with COMPOUND 1 or control. 24 hours post treatment, cells were fixed. The coverslips were incubated with antibodies raised against CBP (A-22) (Santa Cruz Biotechnology) and β-catenin (Transduction Laboratories), respectively. The slides were examined using a Nikon PCM 2000 Laser Scanning Confocal Microscope after the secondary antibodies conjugated to either FITC or TRITC (Jackson ImmunoResearch, Westgrove, Pa.) were applied.
The subcellular distribution of β-catenin and CBP was examined in order to determine whether the localization of either was affected by COMPOUND 1. […]

cyclin D1 promoter = experiment: ChIP assay, cyclin D1 promoter in SW480 cells; conditions: 25 μM
Description: FIG. 5. COMPOUND 1 inhibits the expression of cyclin D1. • A. Cyclin D1 levels are decreased with COMPOUND 1 treatment. Western blot analysis was performed on 25 μg of SW480 whole cell lysates treated for 4, 8, or 24 hours with either 25 μM of COMPOUND 1 or control (0.5% DMSO). Immunoblotting was performed using anti-Cyclin D1 antibodies (Santa Cruz Biotechnology Inc.). • B. In vivo occupancy of cyclin D1 and c-myc promoters by CBP and p300. […] ChIP assays were performed on promoter of c-myc from SW480 cells which was treated for 8 hours with COMPOUND 1 (25 μM) or control (0.5% DMSO). CBP (AC-26, a generous gift from Dr. David Livingston, Harvard University, Boston, Mass.) or p300 (C-20, Santa Cruz Biotechnology Inc.) specific antibodies were used to evaluate the promoter occupancy by CBP or p300 in presence of COMPOUND 1 or control (DMSO) treatment.
Formaldehyde cross-linking and chromatin immunoprecipitation assays of SW480 cells were performed as described previously (Barlev et al., “Acetylation of p53 activates transcription through recruitment of coactivators/histone acetyltransferases,” Mol. Cell 8:1243-54 (2001); El-Osta et al., “Analysis of chromatin-immunopurified MeCP2-associated fragments,” Biochem. Biophys. Res. Commun. 289:733-37 (2001); Shang et al., “Formation of the androgen receptor transcription Complex,” Mol. Cell 9:601-10 (2002)). […]

SW480 cells = experiment: FACS cell cycle analysis (propidium iodide), SW480 cells; conditions: 25 μM, 24 hours
Description: FIG. 6. • A. COMPOUND 1 arrests cells in G1. FACS analysis was performed on SW480 (lower panel) and HCT116 (upper panel) cells treated for 24 hours with either COMPOUND 1 (25 μM) (right) or control (0.5% DMSO (left). 5.5×10^6 cells were fixed and stained with propidium iodide (PI). G0/G1, S, and G2/M are indicated by arrows. • B. COMPOUND 1 selectively activates caspases in colon carcinoma cell lines. SW480 and HCT116 (left graph) cells (10^5) along with the normal colonocytes, CCD18Co (right graph) were treated with either control (0.5% DMSO) or COMPOUND 1 (25 μM). 24 hours post treatment, cells were lysed and the caspase-3/7 enzymatic activities were measured. Relative fluorescence units (RFU) were calculated by subtracting the unit values of the blank (control, without cells) from the treated samples (COMPOUND 1 or control) and plotted.
For FACS analysis, approx. 5×10^6 cells from PNRI-treated or vehicle-treated were fixed with 70% chilled ethanol and stored at −20° C. for at least 30 minutes. […] 10,000 stained cells for each sample were acquired using Beckman Coulter EPICS XL-MCL Flow Cytometry and the percentage of cells in different phase of the cell cycle was determined by Expo32 ADC software (Coulter Corporation, Miami, Fla., 33196). […]

O=C1C(Cc2ccc(O)cc2)N2C(=O)CCN(C(=O)NCc3ccccc3)C2CN1Cc1cccc2ccccc12 (stereo not drawn) [COMPOUND 1]
Subcellular distribution of β-catenin [1]: caused translocation of β-catenin to the cytoplasm | Association of CBP with the cyclin D1 promoter (cyclin D1 promoter): completely and selectively blocks | Cell cycle distribution (DNA content by FACS) (SW480 cells): increased accumulation at G1/S-phase
